Legend:
ECHCG [1] = test: Herbicidal pre-emergence action (Table A2); assay type: in vivo, Echinochloa crus-galli; settings: visual grading after ca. 3 weeks
Method in brief: (§1)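 Double sowing per pot (1 monocot + 1 dicot weed species), sandy loam substrate, seeds covered with soil.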

SETVI [2] = test: Herbicidal pre-emergence action (Table A5); assay type: in vivo, Setaria viridis; settings: visual grading after ca. 3 weeks
Method in brief: as §1

STEME = test: Herbicidal pre-emergence action (Table A6); assay type: in vivo, Stellaria media; settings: visual grading after ca. 3 weeks
Method in brief: as §1

POAAN [3] = test: Herbicidal pre-emergence action (Table A7); assay type: in vivo, Poa annua; settings: visual grading after ca. 3 weeks
Method in brief: as §1

DIGSA [4] = test: Herbicidal pre-emergence action, section C (Table C5); assay type: in vivo, Digitaria sanguinalis; settings: application rate 320 g/ha; visual grading after ca. 3 weeks
SETVI [5] = test: Herbicidal pre-emergence action, section C (Table C10); assay type: in vivo, Setaria viridis; settings: application rate 320 g/ha; visual grading after ca. 3 weeks
ZEAMX [6] = test: Pre-emergence effects on crop plants (Table D1); assay type: in vivo, Zea mays; settings: crop plant, visual grading after ca. 3 weeks
TRZAS [7] = test: Pre-emergence effects on crop plants (Table D2); assay type: in vivo, Triticum aestivum; settings: crop plant; application rate 320 g/ha; visual grading after ca. 3 weeks
GLXMA [8] = test: Pre-emergence effects on crop plants (Table D4); assay type: in vivo, Glycine max; settings: crop plant; application rate 320 g/ha; visual grading after ca. 3 weeks
BRSNW [9] = test: Pre-emergence effects on crop plants (Table D5); assay type: in vivo, Brassica napus; settings: crop plant; application rate 320 g/ha; visual grading after ca. 3 weeks
VIOTR = test: Herbicidal post-emergence action, section E (Table E10); assay type: in vivo, Viola tricolor; settings: application rate 320 g/ha; assessed visually after ca. 3 weeks
Description: (§2) 2 to 3 weeks after sowing, the test plants were sprayed in the single-leaf stage.

ZEAMX [10] = test: Post-emergence effects on crop plants (Table F1); assay type: in vivo, Zea mays; settings: application rate 320 g/ha, crop plant ZEAMX
Description: as §2

TRZAS [11] = test: Post-emergence effects on crop plants (Table F2); assay type: in vivo, Triticum aestivum; settings: application rate 320 g/ha, crop plant TRZAS
Description: as §2

ORYZA [12] = test: Post-emergence effects on crop plants (Table F3); assay type: in vivo, Oryza sativa; settings: application rate 320 g/ha, crop plant ORYZA
Description: as §2

GLXMA [13] = test: Post-emergence effects on crop plants (Table F4); assay type: in vivo, Glycine max; settings: crop plant GLXMA
Description: as §2

BRSNW [14] = test: Post-emergence effects on crop plants (Table F5); assay type: in vivo, Brassica napus; settings: application rate 320 g/ha, crop plant BRSNW
Description: as §2

ORYZA [15] = test: Pre-emergence effects on crop plants (Table D3); settings: crop plant; application rate 320 g/ha; visual grading after ca. 3 weeks
AMARE = test: Herbicidal pre-emergence action (Table A8); assay type: in vivo, Amaranthus retroflexus; settings: application rate 1280 g/ha; visual grading after ca. 3 weeks vs untreated controls (100% = plants have died off, 0% = as control plants)
Description: (§3) Seeds of mono- and dicotyledonous weed plants were sown in plastic pots (double sowings with one species of mono- and one species of dicotyledonous weed plants per pot), in sandy loam, and covered with soil.

VERPE [16] = test: Herbicidal pre-emergence action (Table A11); assay type: in vivo, Veronica persica; settings: application rate 1280 g/ha; visual grading after ca. 3 weeks
Method in brief: as §1

LOLRI = test: Herbicidal pre-emergence action (Table A3); assay type: in vivo, Lolium rigidum; settings: visual grading after ca. 3 weeks
Method in brief: as §1

MATIN [17] = test: Herbicidal pre-emergence action (Table A4); assay type: in vivo, Matricaria inodora; settings: visual grading after ca. 3 weeks
Method in brief: as §1

KCHSC = test: Herbicidal pre-emergence action (Table A10); assay type: in vivo, Kochia scoparia; settings: application rate 1280 g/ha; visual grading after ca. 3 weeks
Method in brief: as §1

DIGSA [18] = test: Herbicidal pre-emergence action (Table A12); assay type: in vivo, Digitaria sanguinalis; settings: application rate 320 g/ha; visual grading after ca. 3 weeks
Method in brief: as §1

ABUTH [19] = test: Herbicidal post-emergence action (Table B1); assay type: in vivo, Abutilon theophrasti; settings: application rate 1280 g/ha; treated at one-leaf stage; rated visually after about 3 weeks vs untreated controls (100% = plants have died, 0% = like control plants)
Experimental: (§4) Seeds of mono- and dicotyledonous weed plants were placed in plastic pots in sandy loam soil (doubly sown with in each case one species of mono- or dicotyledonous weed plants per pot), covered with soil and cultivated in a greenhouse under controlled growth conditions. 2 to 3 weeks after sowing, the test plants were treated at the one-leaf stage. […] After the test plants had been kept in the greenhouse under optimum growth conditions for about 3 weeks, the activity of the preparations was rated visually in comparison to untreated controls. For example, 100% activity = the plants have died, 0% activity = like control plants.

ECHCG [20] = test: Herbicidal post-emergence action (Table B3); assay type: in vivo, Echinochloa crus-galli; settings: rated visually after about 3 weeks
Method in brief: (§5)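 Visual rating against untreated plants (0% = as control, 100% = dead) made roughly 3 weeks after application. Weed species were grown in sandy loam pots under greenhouse conditions and sprayed at the one-leaf stage, 2–3 weeks post-sowing.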

POAAN [21] = test: Herbicidal post-emergence action (Table B7); assay type: in vivo, Poa annua; settings: application rate 1280 g/ha
Method in brief: as §5

ABUTH [22] = test: Herbicidal pre-emergence action (Table A1); assay type: in vivo, Abutilon theophrasti; settings: application rate 1280 g/ha; visual grading after ca. 3 weeks vs untreated controls (100% = plants have died off, 0% = as control plants)
Description: as §3

ALOMY = test: Herbicidal pre-emergence action (Table A9); assay type: in vivo, Alopecurus myosuroides; settings: application rate 1280 g/ha; visual grading after ca. 3 weeks
Method in brief: as §1

MATIN [23] = test: Herbicidal post-emergence action (Table B6); assay type: in vivo, Matricaria inodora; settings: application rate 1280 g/ha; rated visually after about 3 weeks
Experimental: as §4

VERPE [24] = test: Herbicidal post-emergence action (Table B10); assay type: in vivo, Veronica persica; settings: application rate 1280 g/ha
Experimental: as §4

Row | SMILES | pre-emergence activity against ECHCG (ECHCG [1]; application rate 1280 g/ha) [%] | pre-emergence activity against SETVI (SETVI [2]; application rate 320 g/ha) [%] | pre-emergence activity against STEME (STEME; application rate 320 g/ha) [%] | pre-emergence activity against POAAN (POAAN [3]; application rate 320 g/ha) [%] | pre-emergence activity against DIGSA (DIGSA [4]) [%] | pre-emergence activity against SETVI (SETVI [5]) [%] | pre-emergence activity against TRZAS (TRZAS [7]) [%] | pre-emergence activity against GLXMA (GLXMA [8]) [%] | pre-emergence activity against BRSNW (BRSNW [9]) [%] | post-emergence activity against VIOTR (VIOTR) [%] | post-emergence activity against ZEAMX (ZEAMX [10]) [%] | post-emergence activity against TRZAS (TRZAS [11]) [%] | post-emergence activity against ORYZA (ORYZA [12]) [%] | post-emergence activity against BRSNW (BRSNW [14]) [%] | pre-emergence activity against ECHCG (ECHCG [1]; application rate 320 g/ha) [%] | pre-emergence activity against SETVI (SETVI [2]; application rate 1280 g/ha) [%] | pre-emergence activity against VERPE (VERPE [16]) [%] | post-emergence activity against ABUTH (ABUTH [19]) [%] | post-emergence activity against POAAN (POAAN [21]) [%] | further results
1 | O=C1N(Cc2c(F)cccc2Cl)CCCC12CCCN(Cc1c(F)cccc1Cl)C2=O (racemic) [I-063] | 100 | 100 | 100 | 100 | 100 | 100 | 0 | 0 | 10 | 80 | 10 | 0 | 0 | 10 |  |  |  |  |  | pre-emergence activity against ZEAMX (ZEAMX [6]; application rate 320 g/ha): 0%; post-emergence activity against GLXMA (GLXMA [13]; application rate 320 g/ha): 10%; pre-emergence activity against ORYZA (ORYZA [15]): 0%
2 | CC(c1ccccc1F)N1CCCC2(CCCN(C(C)c3ccccc3F)C2=O)C1=O (stereo not drawn) [I-060] |  |  |  |  | 100 | 100 | 10 | 10 | 10 | 90 | 10 | 0 | 0 | 0 | 90 | 100 | 90 |  |  | pre-emergence activity against STEME (STEME; application rate 1280 g/ha): 90%; pre-emergence activity against POAAN (POAAN [3]; application rate 1280 g/ha): 100%; pre-emergence activity against AMARE (AMARE): 90%; pre-emergence activity against ZEAMX (ZEAMX [6]; application rate 80 g/ha): 0%; post-emergence activity against GLXMA (GLXMA [13]; application rate 80 g/ha): 0%
3 | Cc1ccccc1CN1CCC2(CCCN(Cc3c(F)cccc3F)C2=O)C1=O (racemic) [I-058] | 100 |  | 90 | 100 |  |  |  |  |  |  |  |  |  |  |  | 90 |  | 90 | 90 | pre-emergence activity against LOLRI (LOLRI; application rate 1280 g/ha): 90%; pre-emergence activity against MATIN (MATIN [17]; application rate 1280 g/ha): 90%; pre-emergence activity against KCHSC (KCHSC): 90%; pre-emergence activity against DIGSA (DIGSA [18]): 90%; post-emergence activity against ECHCG (ECHCG [20]; application rate 1280 g/ha): 90%
4 | O=C1N(Cc2ccccc2F)CCCC12CCCN(Cc1c(F)cccc1F)C2=O (racemic) [I-031] |  | 100 | 90 | 100 |  |  |  |  |  |  |  |  |  |  | 100 |  | 90 | 90 | 90 | pre-emergence activity against ABUTH (ABUTH [22]): 90%; pre-emergence activity against LOLRI (LOLRI; application rate 320 g/ha): 100%; pre-emergence activity against MATIN (MATIN [17]; application rate 320 g/ha): 90%; pre-emergence activity against ALOMY (ALOMY): 90%; post-emergence activity against ECHCG (ECHCG [20]; application rate 320 g/ha): 90%; post-emergence activity against MATIN (MATIN [23]): 90%; post-emergence activity against VERPE (VERPE [24]): 90%

Source: EP4273147A1, “SUBSTITUTED SPIROLACTAMS, SALTS THEREOF AND THEIR USE AS HERBICIDALLY ACTIVE SUBSTANCES” (Bayer Aktiengesellschaft, priority 2022, dated 2023)
